# Source: US20240245658A1, “TAAR1 AND SEROTONIN MODULATORS, AND PHARMACEUTICAL COMPOSITIONS, AND METHODS OF USE THEREOF” (Sunovion Pharmaceuticals Inc., priority 2021, published 2024)
# Where two headings read alike, the source gives them in different places.
# What was measured:
# Type in all cases: cell-based
# [1] = target: T1, human TAAR1 receptors (Homo sapiens, UniProt Q96RJ0); test: TAAR1 Agonism Assay: cAMP HTRF assay for Gs coupled receptor TAAR1 (Euroscreen FAST-0987C); settings: CHO-K1 cells expressing human TAAR1, cAMP HTRF
# T1 construct: host or cells: CHO-K1
# T1 sequence (Q96RJ0 1-339): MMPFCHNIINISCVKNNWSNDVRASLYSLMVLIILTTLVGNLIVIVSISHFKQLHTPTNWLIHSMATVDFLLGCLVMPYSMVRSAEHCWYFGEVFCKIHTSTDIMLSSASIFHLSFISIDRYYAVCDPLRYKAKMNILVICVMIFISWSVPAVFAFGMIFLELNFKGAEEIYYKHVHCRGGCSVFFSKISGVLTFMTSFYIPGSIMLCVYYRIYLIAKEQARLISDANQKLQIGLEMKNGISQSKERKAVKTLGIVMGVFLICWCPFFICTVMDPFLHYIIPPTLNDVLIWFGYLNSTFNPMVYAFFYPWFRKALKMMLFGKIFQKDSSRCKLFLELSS
# Procedure: Dose response curves were performed in parallel with the reference compound, tyramine.
# For the TAAR1 agonist test (performed in a 384 well plate): 5 μl of cells (about 3,000 cells) were mixed with 5 μl of the test compound diluted in assay buffer and then incubated for about 30 minutes at about room temperature. After addition of the lysis buffer containing cAMP-d2 and anti-cAMP cryptate detection reagents, plates were incubated for about a 1-hour incubation at about room temperature, and fluorescence ratios were measured according to the manufacturer specifications, with the HTRF (Homogeneous Time Resolved Fluorescence) kit (cAMP Gs dynamic kit, Cisbio Bioassays, 62AM4PEJ).
# (§1) Compounds were tested at the following nanomolar concentrations, in duplicate: 0.3 nM, 1 nM, 3 nM, 10 nM, 30 nM, 100 nM, 300 nM, 1,000 nM, 3,000 nM, and 10,000 nM.
# [2] = target: T2, human 5-HT2A receptor (Homo sapiens, UniProt P28223); test: 5HT2A Antagonism Assay (Euroscreen FAST-05051), IP-One HTRF
# T2 construct: host or cells: CHO-K1
# T2 sequence (P28223 whole entry): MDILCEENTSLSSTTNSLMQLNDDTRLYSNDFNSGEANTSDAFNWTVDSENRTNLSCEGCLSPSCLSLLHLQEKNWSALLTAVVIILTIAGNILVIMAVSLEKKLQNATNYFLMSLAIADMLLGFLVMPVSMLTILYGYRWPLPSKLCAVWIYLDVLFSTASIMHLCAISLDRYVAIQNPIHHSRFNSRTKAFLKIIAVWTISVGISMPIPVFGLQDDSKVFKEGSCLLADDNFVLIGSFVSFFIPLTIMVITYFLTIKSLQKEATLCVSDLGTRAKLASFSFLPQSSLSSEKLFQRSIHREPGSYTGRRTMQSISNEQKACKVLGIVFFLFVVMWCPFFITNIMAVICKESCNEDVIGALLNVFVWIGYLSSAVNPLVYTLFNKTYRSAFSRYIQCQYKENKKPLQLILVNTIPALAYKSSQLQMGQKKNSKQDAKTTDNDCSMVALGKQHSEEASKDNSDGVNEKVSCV
# Procedure: 5HT2A Antagonism Assay Protocol (Euroscreen FAST-05051)
# CHO-K1 cells expressing the human 5-HT2A receptor grown to mid-log phase in culture media without antibiotics, were detached with PBS-EDTA, centrifuged, and resuspended in the IP-One Gq kit (Cisbio Bioassays, 62IPAPEC) stimulation buffer.
# For antagonist testing in a 384 well plate: 5 μl of cells (20,000 cells) were mixed with 5 μl of a mix of test compound and reference agonist (for a final assay concentration corresponding to its EC80) diluted in stimulation buffer. The plate was incubated for 60 minutes at 37° C. in a humidified atmosphere of 95% air with 5% CO2, then 5 μL of IP1-d2 and anti-IP1 cryptate detection reagents were added to each well, the plates were incubated for about 1 hour at about room temperature. Fluorescence ratios are measured according to the manufacturer's specification (IP-One Gq kit (Cisbio Bioassays, 62IPAPEC).
# Dose response curves were performed in parallel with reference compounds (e.g., α-methyl-5-HT. Compounds were tested at the following nanomolar concentrations, in duplicate: 0.3 nM, 1 nM, 3 nM, 10 nM, 30 nM, 100 nM, 300 nM, 1,000 nM, 3,000 nM, and 10,000 nM
# [3] = target: T3, human 5-HT7 receptor (Homo sapiens, UniProt P34969); test: 5HT7 Antagonism Assay (Euroscreen FAST-0499C), cAMP HTRF; settings: CHO-K1 cells expressing human 5-HT7, reference agonist at EC80, cAMP HTRF
# T3 construct: host or cells: CHO-K1
# T3 sequence (P34969 whole entry): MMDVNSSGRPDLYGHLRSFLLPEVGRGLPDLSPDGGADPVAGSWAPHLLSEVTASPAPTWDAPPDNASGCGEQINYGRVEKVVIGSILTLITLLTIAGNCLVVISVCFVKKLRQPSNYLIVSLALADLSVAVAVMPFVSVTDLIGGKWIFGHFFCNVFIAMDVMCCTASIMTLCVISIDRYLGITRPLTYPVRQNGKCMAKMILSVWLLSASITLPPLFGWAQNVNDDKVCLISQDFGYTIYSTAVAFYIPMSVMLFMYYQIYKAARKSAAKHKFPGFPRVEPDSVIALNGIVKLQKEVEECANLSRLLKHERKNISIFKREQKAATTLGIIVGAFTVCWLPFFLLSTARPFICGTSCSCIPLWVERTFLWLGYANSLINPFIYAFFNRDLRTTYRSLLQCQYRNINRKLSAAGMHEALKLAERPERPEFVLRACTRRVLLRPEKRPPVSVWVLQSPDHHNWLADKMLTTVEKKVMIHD
# Procedure: 5HT7 Antagonism Assay Protocol (Euroscreen FAST-0499C)
# CHO-K1 cells expressing the human 5-HT7 receptor, grown prior to the test in media without antibiotic, were detached by gentle flushing with PBS-EDTA (5 mM EDTA), recovered by centrifugation and resuspended in assay buffer (Krebs-Ringer HEPES buffer: 5 mM KCl, 1.25 mM MgSO4, 124 mM NaCl, 25 mM HEPES, 13.3 mM Glucose, 1.25 mM KH2PO4, 1.45 mM CaCl2), 0.5 g/l BSA, supplemented with 1 mM IBMX).
# Dose response curves were performed in parallel with reference compounds (e.g., 5-carboxamidotryptamine (5-CT)).
# For antagonist testing in a 384 well plate: 5 μl of cells (3000 cells) were mixed with 5 μl of a mix of test compound and reference agonist (for a final assay concentration corresponding to its EC80) diluted in assay buffer. The plates were then incubated for about 30 minutes at about room temperature. After addition of the lysis buffer containing cAMP-d2 and anti-cAMP cryptate detection reagents, plates were incubated for about 1 hour at about room temperature, and fluorescence ratios were measured according to the manufacturer's specifications (HTRF kit: cAMP Gs dynamic kit, Cisbio Bioassays, 62AM4PEJ).
# as §1
# [4] = read-out: 5-HT2A (IC50), CHO-K1 cells expressing human 5-HT2A, reference agonist at EC80, IP-One
# [5] = CHO-K1 cells expressing human 5-HT2A, reference agonist at EC80, IP-One, read-out: 5-HT2A (IC50)
# [6] = 5-HT2A (IC50), CHO-K1 cells expressing human 5-HT2A, reference agonist at EC80, IP-One
SMILES,EC50 [1],"IC50 [2, 4]",IC50 [3],"IC50 [2, 5]","IC50 [2, 6]"
"CNCC1Oc2ccc(F)cc2Oc2ccccc21 (single isomer, unassigned) [Compound 44, (S*)-1-(7-fluoro-11H-dibenzo[b,e][1,4]dioxepin-11-yl)-N-methylmethanamine]",< 1 µM,< 1 µM,< 1 µM,,
"CNCC1Oc2ccccc2Oc2ncccc21 (single isomer, unassigned) [Compound 45, (R*)-1-(5H-benzo[2,3][1,4]dioxepino[5,6-b]pyridin-5-yl)-N-methylmethanamine]",> 10 µM,,≥ 10 µM,1 to 10 µM,
"CNCC1Oc2ccccc2Oc2ncccc21 (single isomer, unassigned) [Compound 46, (S*)-1-(5H-benzo[2,3][1,4]dioxepino[5,6-b]pyridin-5-yl)-N-methylmethanamine]",1 to 10 µM,,≥ 10 µM,1 to 10 µM,
"NCC1Oc2ccccc2Oc2ncccc21 (single isomer, unassigned) [Compound 47, (R*)-(5H-benzo[2,3][1,4]dioxepino[5,6-b]pyridin-5-yl)methanamine]",1 to 10 µM,,≥ 10 µM,> 10 µM,
"NCC1Oc2ccccc2Oc2ncccc21 (single isomer, unassigned) [Compound 48, (S*)-(5H-benzo[2,3][1,4]dioxepino[5,6-b]pyridin-5-yl)methanamine]",1 to 10 µM,,≥ 10 µM,> 10 µM,
"NCC1Oc2ccccc2Oc2cnccc21 (single isomer, unassigned) [Compound 49, (R*)-(5H-benzo[2,3][1,4]dioxepino[5,6-c]pyridin-5-yl)methanamine]",1 to 10 µM,,≥ 10 µM,,> 10 µM
"NCC1Oc2ccccc2Oc2cnccc21 (single isomer, unassigned) [Compound 50, (S*)-(5H-benzo[2,3][1,4]dioxepino[5,6-c]pyridin-5-yl)methanamine]",< 1 µM,> 10 µM,≥ 10 µM,,
"CNCC1Oc2ccccc2Oc2cnccc21 (single isomer, unassigned) [Compound 51, (R*)-1-(5H-benzo[2,3][1,4]dioxepino[5,6-c]pyridin-5-yl)-N-methylmethanamine]",1 to 10 µM,,≥ 10 µM,1 to 10 µM,
"CNCC1Oc2ccccc2Oc2cnccc21 (single isomer, unassigned) [Compound 52, (S*)-1-(5H-benzo[2,3][1,4]dioxepino[5,6-c]pyridin-5-yl)-N-methylmethanamine]",> 10 µM,,≥ 10 µM,1 to 10 µM,
"NCC1Oc2ccccc2Oc2ccncc21 (single isomer, unassigned) [Compound 53, (R*)-(11H-benzo[2,3][1,4]dioxepino[6,5-c]pyridin-11-yl)methanamine]",1 to 10 µM,,≥ 10 µM,> 10 µM,
"NCC1Oc2ccccc2Oc2ccncc21 (single isomer, unassigned) [Compound 54, (S*)-(11H-benzo[2,3][1,4]dioxepino[6,5-c]pyridin-11-yl)methanamine]",1 to 10 µM,,≥ 10 µM,> 10 µM,
"CNC[C@@H]1Oc2ccccc2Oc2ccncc21 (single isomer, unassigned) [Compound 55, (R*)-1-(11H-benzo[2,3][1,4]dioxepino[6,5-c]pyridin-11-yl)-N-methylmethanamine]",> 10 µM,,≥ 10 µM,> 10 µM,
"CNC[C@H]1Oc2ccccc2Oc2ccncc21 (single isomer, unassigned) [Compound 56, (S*)-1-(11H-benzo[2,3][1,4]dioxepino[6,5-c]pyridin-11-yl)-N-methylmethanamine]",> 10 µM,,≥ 10 µM,> 10 µM,
"CNCC1Oc2ccccc2Oc2cccnc21 (single isomer, unassigned) [Compound 57, (S*)-1-(11H-benzo[2,3][1,4]dioxepino[6,5-b]pyridin-11-yl)-N-methylmethanamine]",< 1 µM,,≥ 10 µM,,1 to 10 µM
"CNCC1Oc2ccccc2Oc2cccnc21 (single isomer, unassigned) [Compound 58, (R*)-1-(11H-benzo[2,3][1,4]dioxepino[6,5-b]pyridin-11-yl)-N-methylmethanamine]",< 1 µM,1 to 10 µM,1 to 10 µM,,
"NCC1Oc2ccccc2Oc2cccnc21 (single isomer, unassigned) [Compound 59, (S*)-(11H-benzo[2,3][1,4]dioxepino[6,5-b]pyridin-11-yl)methanamine]",< 1 µM,,≥ 10 µM,,> 10 µM
"NCC1Oc2ccccc2Oc2cccnc21 (single isomer, unassigned) [Compound 60, (R*)-(11H-benzo[2,3][1,4]dioxepino[6,5-b]pyridin-11-yl)methanamine]",< 1 µM,> 10 µM,≥ 10 µM,,
"NCC1Cc2c(F)cccc2Oc2ccccc21 (single isomer, unassigned) [Compound 80, (R*)-(1-fluoro-10,11-dihydrodibenzo[b,f]oxepin-10-yl)methanamine]",< 1 µM,,≥ 10 µM,,< 1 µM
"NCC1Cc2c(F)cccc2Oc2ccccc21 (single isomer, unassigned) [Compound 81, (S*)-(1-fluoro-10,11-dihydrodibenzo[b,f]oxepin-10-yl)methanamine]",< 1 µM,< 1 µM,≥ 10 µM,,
"CNCC1Cc2c(F)cccc2Oc2ccccc21 (single isomer, unassigned) [Compound 82, (R*)-1-(1-fluoro-10,11-dihydrodibenzo[b,f]oxepin-10-yl)-N-methylmethanamine]",< 1 µM,,1 to 10 µM,,< 1 µM
"CNCC1Cc2c(F)cccc2Oc2ccccc21 (single isomer, unassigned) [Compound 83, (S*)-1-(1-fluoro-10,11-dihydrodibenzo[b,f]oxepin-10-yl)-N-methylmethanamine]",> 10 µM,< 1 µM,1 to 10 µM,,
"NCC1Cc2cccc(F)c2Oc2ccccc21 (single isomer, unassigned) [Compound 84, (R*)-(4-fluoro-10,11-dihydrodibenzo[b,f]oxepin-10-yl)methanamine]",< 1 µM,,≥ 10 µM,,> 10 µM
"NCC1Cc2cccc(F)c2Oc2ccccc21 (single isomer, unassigned) [Compound 85, (S*)-(4-fluoro-10,11-dihydrodibenzo[b,f]oxepin-10-yl)methanamine]",< 1 µM,,≥ 10 µM,,1 to 10 µM
"CNCC1Cc2cccc(F)c2Oc2ccccc21 (single isomer, unassigned) [Compound 86, (R*)-(4-fluoro-10,11-dihydrodibenzo[b,f]oxepin-10-yl)-N-methylmethanamine]",< 1 µM,,1 to 10 µM,,< 1 µM
